Data from patent publication US10179771B2 (GALAPAGOS NV, priority 2014, dated 2019).
pIC50: −log10 of the molar value.

Assays:
[1] = biological target: T1, Recombinant human JAK2 catalytic domain (Homo sapiens, UniProt O60674); experiment: JAK2 inhibition assay (polyGT substrate / Ulight-JAK1 peptide assay); assay type: biochemical
T1 construct: Recombinant human JAK2 catalytic domain (amino acids 808-1132; catalog number PV4210); GST; purchased Invitrogen PV4210
Experimental: Recombinant human JAK2 catalytic domain (amino acids 808-1132; catalog number PV4210) was purchased from Invitrogen. 0.025 mU of JAK2 is incubated with […] polyGT substrate (Sigma catalog number P0275) in kinase reaction buffer (5 mM MOPS pH 7.5, 9 mM MgAc, 0.3 mM EDTA, 0.06% Brij and 0.6 mM DTT, 1 μM non-radioactive ATP, 0.25 μCi ^33P-gamma-ATP (GE Healthcare, catalog number AH9968) final concentrations) with or without 5 μL containing test compound or vehicle (DMSO, 1% final concentration), in a total volume of 25 μL, in a polypropylene 96-well plate (Greiner, V-bottom). After 90 min at 30° C., reactions are stopped by adding of 25 μL/well of 150 mM phosphoric acid. All of the terminated kinase reaction is transferred to prewashed (75 mM phosphoric acid) 96 well filter plates (Perkin Elmer catalog number 6005177) using a cell harvester (Perkin Elmer). Plates are washed 6 times with 300 μL per well of a 75 mM phosphoric acid solution and the bottom of the plates is sealed. 40 μL/well of Microscint-20 is added, the top of the plates is sealed and readout is performed using the Topcount (Perkin Elmer). Kinase activity is calculated by subtracting counts per min (cpm) obtained in the presence of a positive control inhibitor (10 μM staurosporine) from cpm obtained in the presence of vehicle. The ability of a test compound to inhibit this activity is determined as:
(§1) [formula] • RFU test compound=RFU determined for sample with test compound present • RFU control=RFU determined for sample with positive control inhibitor • RFU vehicle=RFU determined in the presence of vehicle
Dose dilution series are prepared for the compounds enabling the testing of dose-response effects in the JAK2 assay and the calculation of the IC50 for each compound. Each compound is routinely tested at concentration of 20 μM followed by a 1/3 serial dilution, 8 points (20 μM-6.67 μM-2.22 μM-740 nM-247 nM-82 nM-27 nM-9 nM) in a final concentration of 1% DMSO. When potency of compound series increased, more dilutions are prepared and/or the top concentration is lowered (e.g. 5 μM, 1 μM).
Recombinant human JAK2 (catalytic domain, amino acids 866-1154; catalog number PV4210) was purchased from Invitrogen. 0.0125 mU of JAK2 was incubated with 25 nM Ulight-JAK1 (tyr1023) peptide (Perkin Elmer catalog number TRF0121) in kinase reaction buffer (25 mM HEPES pH7.0, 0.01% Triton X-100, 7.5 mM MgCl2, 2 mM DTT, 7.5 μM ATP) with or without 4 μL containing test compound or vehicle (DMSO, 1% final concentration), in a total volume of 20 μL, in a white 384 Opti plate (Perkin Elmer, catalog number 6007290). After 60 min at room temperature, reactions were stopped by adding 20 μL/well of detection mixture (1× detection buffer (Perkin Elmer, catalog number CR97-100C), 0.5 nM Europium-anti-phosphotyrosine (PT66) (Perkin Elmer, catalog number AD0068), 10 mM EDTA). Readout is performed using the Envision with excitation at 320 nm and measuring emission at 615 nm (Perkin Elmer). Kinase activity was calculated by subtracting relative fluorescence units (RFU) obtained in the presence of a positive control inhibitor (10 μM staurosporine) from RFU obtained in the presence of vehicle. The ability of a test compound to inhibit this activity was determined as: Percentage inhibition=((RFU determined for sample with test compound present−RFU determined for sample with positive control inhibitor) divided by (RFU determined in the presence of vehicle−RFU determined for sample with positive control inhibitor))*100.
Dose dilution series are prepared for compound enabling the testing of dose-response effects in the JAK2 assay and the calculation of the IC50 for the compound. Each compound is routinely tested at concentration of 20 μM followed by a 1/5 serial dilution, 10 points in a final concentration of 1% DMSO. When potency of compound series increases, more dilutions are prepared and/or the top concentration are lowered (e.g. 5 μM, 1 μM). […]

[2] = biological target: T2, Recombinant human JAK3 catalytic domain (Homo sapiens, UniProt P52333); experiment: JAK3 inhibition assay; assay type: biochemical
T2 construct: Recombinant human JAK3 catalytic domain (amino acids 781-1124; catalog number PV3855); purchased Invitrogen PV3855
Experimental: Recombinant human JAK3 catalytic domain (amino acids 781-1124; catalog number PV3855) was purchased from Invitrogen. 0.5 ng JAK3 protein was incubated with 2.5 μg polyGT substrate (Sigma catalog number P0275) in kinase reaction buffer (25 mM Tris pH 7.5, 0.5 mM EGTA, 10 mM MgCl2, 2.5 mM DTT, 0.5 mM Na3VO4, 5 mM b-glycerolphosphate, 0.01% Triton X-100, 1 μM non-radioactive ATP, […] ^33P-gamma-ATP (GE Healthcare, catalog number AH9968) final concentrations) with or without 5 μL containing test compound or vehicle (DMSO, 1% final concentration), in a total volume of 25 μL, in a polypropylene 96-well plate (Greiner, V-bottom). After 45 min at 30° C., reactions were stopped by adding 25 μL/well of 150 mM phosphoric acid. All of the terminated kinase reaction was transferred to prewashed (75 mM phosphoric acid) 96 well filter plates (Perkin Elmer catalog number 6005177) using a cell harvester (Perkin Elmer). Plates were washed 6 times with 300 μL per well of a 75 mM phosphoric acid solution and the bottom of the plates was sealed. 40 μL/well of Microscint-20 was added, the top of the plates was sealed and readout was performed using the Topcount (Perkin Elmer). Kinase activity was calculated by subtracting counts per min (cpm) obtained in the presence of a positive control inhibitor (10 μM staurosporine) from cpm obtained in the presence of vehicle. The ability of a test compound to inhibit this activity was determined as:
as §1
Dose dilution series were prepared for the compounds enabling the testing of dose-response effects in the JAK3 assay and the calculation of the IC50 for each compound. Each compound was routinely tested at concentration of 20 μM followed by a 1/5 serial dilution, 10 points in a final concentration of 1% DMSO. When potency of compound series increased, more dilutions were prepared and/or the top concentration was lowered (e.g. 5 μM, 1 μM).

[3] = Illustrative Compounds of the invention (Table VII)
[4] = Illustrative Compounds of the invention (Table IX)

T1 sequence (O60674 808-1132): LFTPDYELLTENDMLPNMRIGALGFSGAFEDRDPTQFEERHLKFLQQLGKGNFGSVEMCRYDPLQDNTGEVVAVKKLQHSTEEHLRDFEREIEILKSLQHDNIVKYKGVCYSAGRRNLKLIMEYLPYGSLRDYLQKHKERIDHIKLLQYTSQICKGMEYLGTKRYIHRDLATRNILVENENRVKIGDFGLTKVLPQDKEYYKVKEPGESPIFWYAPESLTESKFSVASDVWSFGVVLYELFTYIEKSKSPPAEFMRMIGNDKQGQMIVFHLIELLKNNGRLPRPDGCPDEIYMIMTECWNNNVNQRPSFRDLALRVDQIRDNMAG
T2 sequence (P52333 781-1124): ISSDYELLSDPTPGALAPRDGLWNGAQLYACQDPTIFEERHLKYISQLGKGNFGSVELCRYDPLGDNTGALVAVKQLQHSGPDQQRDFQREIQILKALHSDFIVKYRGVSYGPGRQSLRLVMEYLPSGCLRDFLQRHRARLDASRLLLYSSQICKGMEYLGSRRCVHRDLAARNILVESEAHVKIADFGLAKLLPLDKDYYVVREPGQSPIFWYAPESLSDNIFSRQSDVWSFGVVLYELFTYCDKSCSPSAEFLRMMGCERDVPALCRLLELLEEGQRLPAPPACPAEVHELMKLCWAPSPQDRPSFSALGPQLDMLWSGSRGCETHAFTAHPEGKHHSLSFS

SMILES | pIC50 [1, 3] | pIC50 [2, 4] | pIC50 ([1]; Comparative Compounds (Table VIII)) | pIC50 ([2]; Comparative Compounds (Table X))
CNC(=O)Nc1cc(Oc2cnc(C#N)cc2C)cc2c1ncn2C | 7.30 to 10.00 | 6.30 to 7.00 |  | 
CCc1cc(C#N)cc(F)c1N(C)c1cc(NC(=O)[C@@H]2C[C@@H]2F)c2ncn(C)c2c1 (racemic) [Cpd 7, N-(6-((4-cyano-2-ethyl-6-fluorophenyl)(methyl)amino)-1-methyl-1H-benzo[d]imidazol-4-yl)-2-fluorocyclopropanecarboxamide (1S,2S)/(1R,2R) racemic mixture] | 7.30 to 10.00 | 7.30 to 10.00 |  | 
CN(c1ccc2ncn(C)c2c1)c1ccc(C#N)cc1F [C, 3-fluoro-4-[methyl-(3-methylbenzimidazol-5-yl)amino]benzonitrile, reference compound] |  |  | < 6.30 | < 6.30
CCc1cc(C#N)cc(F)c1Nc1cc(NC(=O)C2CC2)c2ncn(C)c2c1 [Cpd 2, N-(6-(4-cyano-2-ethyl-6-fluorophenylamino)-1-methyl-1H-benzo[d]imidazol-4-yl)cyclopropanecarboxamide] | 7.30 to 10.00 | 7.30 to 10.00 |  | 
CCc1cc(C#N)cc(F)c1N(C)c1cc(NC(=O)C2CC2)c2ncn(C)c2c1 [Cpd 3, N-(6-((4-cyano-2-ethyl-6-fluorophenyl)(methyl)amino)-1-methyl-1H-benzo[d]imidazol-4-yl)cyclopropanecarboxamide] | 7.30 to 10.00 | 7.30 to 10.00 |  | 
CCc1cc(C#N)ncc1N(C)c1cc(NC(=O)OC)c2ncn(C)c2c1 [Cpd 4, methyl 6-((6-cyano-4-ethylpyridin-3-yl)(methyl)amino)-1-methyl-1H-benzo[d]imidazol-4-ylcarbamate] | 7.30 to 10.00 | 6.30 to 7.00 |  | 
CCc1cc(C#N)cc(F)c1N(C)c1cc(NC(=O)OC)c2ncn(C)c2c1 [Cpd 5, methyl 6-((4-cyano-2-ethyl-6-fluorophenyl)(methyl)amino)-1-methyl-1H-benzo[d]imidazol-4-ylcarbamate] | 7.30 to 10.00 | 7.00 to 7.30 |  | 
CCc1cc(C#N)ccc1Oc1cc(NC(=O)[C@H]2C[C@H]2F)c2ncn(C)c2c1 [Cpd 10, (1R,2R)-N-[6-(4-cyano-2-ethyl-phenoxy)-1-methyl-benzimidazol-4-yl]-2-fluoro-cyclopropanecarboxamide] | 7.30 to 10.00 | 6.30 to 7.00 |  | 
CN(c1cc(NC(=O)[C@H]2C[C@H]2F)c2ncn(C)c2c1)c1c(F)cc(C#N)cc1Cl [Cpd 11, (1R,2R)-N-[6-(2-chloro-4-cyano-6-fluoro-N-methyl-anilino)-1-methyl-benzimidazol-4-yl]-2-fluoro-cyclopropanecarboxamide] | 7.30 to 10.00 | 6.30 to 7.00 |  | 
CN(c1cc(NC(=O)[C@H]2C[C@H]2F)c2ncn(C)c2c1)c1ccc(F)nc1F [Cpd 13, (1R,2R)-N-[6-[(2,6-difluoro-3-pyridyl)-methyl-amino]-1-methyl-benzimidazol-4-yl]-2-fluoro-cyclopropanecarboxamide] | 6.30 to 7.00 | < 6.30 |  | 
Cc1cc(S(C)(=O)=O)cc(F)c1N(C)c1cc(NC(=O)[C@H]2C[C@H]2F)c2ncn(C)c2c1 [Cpd 16, (1R,2R)-2-fluoro-N-[6-(2-fluoro-N,6-dimethyl-4-methylsulfonyl-anilino)-1-methyl-benzimidazol-4-yl]cyclopropanecarboxamide] | 7.30 to 10.00 | 7.00 to 7.30 |  | 
CN(c1cc(NC(=O)[C@H]2C[C@H]2F)c2ncn(C)c2c1)c1ccc(S(C)(=O)=O)cc1F [Cpd 17, (1R,2R)-2-fluoro-N-[6-(2-fluoro-N-methyl-4-methylsulfonyl-anilino)-1-methyl-benzimidazol-4-yl]cyclopropanecarboxamide] | < 6.30 | < 6.30 |  | 

Further lines, results first:

pIC50 [1, 3] | pIC50 [2, 4] | pIC50 ([1]; Comparative Compounds (Table VIII)) | pIC50 ([2]; Comparative Compounds (Table X)) | SMILES
7.30 to 10.00 | 7.00 to 7.30 |  |  | CCc1cc(C#N)ncc1N(C)c1cc(NC(=O)C2CC2)c2ncn(C)c2c1 [Cpd 1, N-(6-((6-cyano-4-ethylpyridin-3-yl)(methyl)amino)-1-methyl-1H-benzo[d]imidazol-4-yl)cyclopropanecarboxamide]
7.30 to 10.00 | < 6.30 |  |  | CCc1cc(C#N)ncc1Oc1cc(NC(=O)[C@H]2C[C@H]2F)c2ncn(C)c2c1 [Cpd 6, (1R,2R)-N-[6-[(6-cyano-4-ethyl-3-pyridyl)oxy]-1-methyl-benzimidazol-4-yl]-2-fluoro-cyclopropanecarboxamide]
7.30 to 10.00 | 6.30 to 7.00 |  |  | CCc1cc(C#N)ncc1N(C)c1cc(NC(=O)[C@H]2C[C@H]2F)c2ncn(C)c2c1 [Cpd 8, (1R,2R)-N-(6-((6-cyano-4-ethylpyridin-3-yl)(methyl)amino)-1-methyl-1H-benzo[d]imidazol-4-yl)-2-fluorocyclopropanecarboxamide]
7.30 to 10.00 | 6.30 to 7.00 |  |  | Cc1cc(C#N)ncc1N(C)c1cc(NC(=O)[C@H]2C[C@H]2F)c2ncn(C)c2c1 [Cpd 9, (1R,2R)-N-(6-((6-cyano-4-methylpyridin-3-yl)(methyl)amino)-1-methyl-1H-benzo[d]imidazol-4-yl)-2-fluorocyclopropanecarboxamide]
7.00 to 7.30 | 6.30 to 7.00 |  |  | Cc1cc(F)ncc1N(C)c1cc(NC(=O)[C@H]2C[C@H]2F)c2ncn(C)c2c1 [Cpd 12, (1R,2R)-2-fluoro-N-[6-[(6-fluoro-4-methyl-3-pyridyl)-methyl-amino]-1-methyl-benzimidazol-4-yl]cyclopropanecarboxamide]
7.00 to 7.30 | 6.30 to 7.00 |  |  | CN(c1cc(NC(=O)[C@H]2C[C@H]2F)c2ncn(C)c2c1)c1ccc(C#N)nc1F [Cpd 14, (1R,2R)-N-[6-[(6-cyano-2-fluoro-3-pyridyl)-methyl-amino]-1-methyl-benzimidazol-4-yl]-2-fluoro-cyclopropanecarboxamide]
6.30 to 7.00 | < 6.30 |  |  | CN(c1cc(NC(=O)[C@H]2C[C@H]2F)c2ncn(C)c2c1)c1ccc(C#N)cc1F [Cpd 15, (1R,2R)-N-[6-(4-cyano-2-fluoro-N-methyl-anilino)-1-methyl-benzimidazol-4-yl]-2-fluoro-cyclopropanecarboxamide]
